Tests used:
Experiment in all cases: relative viability (nuclei count vs DMSO), 5 days (fraction); higher = more cells survive
Quizartinib + Foretinib = compound: CC(C)(C)c1cc(NC(=O)Nc2ccc(-c3cn4c(n3)sc3cc(OCCN5CCOCC5)ccc34)cc2)no1 [Quizartinib] + COc1cc2c(Oc3ccc(NC(=O)C4(C(=O)Nc5ccc(F)cc5)CC4)cc3F)ccnc2cc1OCCCN1CCOCC1 [Foretinib] (partner 0.25 µM)
Method in brief: (§1)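 Values are medians from duplicate plates. Each reflects relative viability, defined as the nuclei count of treated wells over that of vehicle wells. Lung cancer cell lines in 1536-well plates were pin-tool dosed one day after seeding with one drug alone or with a fixed anchor-drug dose plus five library-drug doses (not always all listed) in √10 steps, then fixed, stained and imaged at 4× after 5 days.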

Quizartinib + Vorinostat = compound: CC(C)(C)c1cc(NC(=O)Nc2ccc(-c3cn4c(n3)sc3cc(OCCN5CCOCC5)ccc34)cc2)no1 [Quizartinib] + O=C(CCCCCCC(=O)Nc1ccccc1)NO [Vorinostat] (partner 1 µM)
Method in brief: as §1

YM155 + Trametinib = compound: COCC[n+]1c2c(n(Cc3cnccn3)c1C)C(=O)c1ccccc1C2=O [YM155] + CC(=O)Nc1cccc(-n2c(=O)n(C3CC3)c(=O)c3c(Nc4ccc(I)cc4F)n(C)c(=O)c(C)c32)c1 [Trametinib] (partner 0.02 µM)
Method in brief: as §1

YM155 + Navitoclax = compound: COCC[n+]1c2c(n(Cc3cnccn3)c1C)C(=O)c1ccccc1C2=O [YM155] + CC1(C)CCC(c2ccc(Cl)cc2)=C(CN2CCN(c3ccc(C(=O)NS(=O)(=O)c4ccc(N[C@H](CCN5CCOCC5)CSc5ccccc5)c(S(=O)(=O)C(F)(F)F)c4)cc3)CC2)C1 [Navitoclax] (partner 0.5 µM)
Method in brief: as §1

| Cell Line | relative viability (Quizartinib + Foretinib; first compound 0.001 µM) | relative viability (Quizartinib + Foretinib; first compound 0.003162 µM) | relative viability (Quizartinib + Foretinib; first compound 0.01 µM) | relative viability (Quizartinib + Foretinib; first compound 0.03162 µM) | relative viability (Quizartinib + Foretinib; first compound 0.1 µM) | relative viability (Quizartinib + Vorinostat; first compound 0.001 µM) | relative viability (Quizartinib + Vorinostat; first compound 0.003162 µM) | relative viability (Quizartinib + Vorinostat; first compound 0.01 µM) | relative viability (Quizartinib + Vorinostat; first compound 0.1 µM) | relative viability (YM155 + Trametinib; first compound 0.002 µM) | relative viability (YM155 + Trametinib; first compound 0.006325 µM) | relative viability (YM155 + Trametinib; first compound 0.02 µM) | relative viability (YM155 + Trametinib; first compound 0.06325 µM) | relative viability (YM155 + Navitoclax; first compound 0.002 µM) | relative viability (YM155 + Navitoclax; first compound 0.006325 µM) | relative viability (YM155 + Navitoclax; first compound 0.02 µM) | relative viability (YM155 + Navitoclax; first compound 0.06325 µM) | relative viability (Quizartinib + Vorinostat; first compound 0.03162 µM) |
| --- | --- | --- | --- | --- | --- | --- | --- | --- | --- | --- | --- | --- | --- | --- | --- | --- | --- | --- |
| SW 1573 | 0.946 | 0.886 | 0.896 | 1.02 | 1.04 | 0.556 | 0.715 | 0.684 | 1.27 | 0.59 | 0.453 | 0.16 | 0.0853 | 1.05 | 0.959 | 1.04 | 0.555 |  |
| NCI-H2087 |  | 1.05 | 1.12 | 0.941 | 1.07 | 0.751 | 0.705 | 0.676 | 0.73 | 0.143 | 0.179 | 0.271 | 0.225 | 1.03 | 0.875 | 0.969 | 0.816 | 0.384 |
| HCC-15 |  | 0.978 | 0.979 |  | 0.952 | 0.747 | 0.799 | 0.882 | 0.832 | 0.331 | 0.389 | 0.283 | 0.423 | 0.66 | 0.673 | 0.72 | 0.706 | 0.823 |
| NCI-H1915 | 1.06 | 0.992 | 1.13 | 1.03 | 1.07 | 0.55 | 0.442 | 0.49 | 0.562 | 0.303 | 0.295 | 0.3 | 0.349 | 0.804 | 0.79 | 0.792 | 0.822 | 0.551 |
| NCI-H1666 | 0.749 | 0.925 | 1.03 | 0.783 | 1.02 | 1.06 | 0.974 | 1.16 | 1.07 | 0.865 | 0.896 | 0.874 | 0.903 | 0.991 |  | 0.996 | 0.861 | 0.893 |
| NCI-H1651 | 0.766 | 0.747 | 0.872 | 0.606 | 0.769 | 0.535 | 0.64 | 0.551 | 0.612 | 0.863 | 0.755 | 0.867 | 0.962 | 1.22 | 0.995 | 1.08 | 0.606 | 0.527 |
| NCI-H2347 | 0.655 | 0.963 | 0.638 | 0.892 | 0.938 | 0.544 | 0.647 | 0.715 | 0.603 | 0.279 | 0.258 | 0.306 | 0.283 | 0.756 | 0.779 | 0.83 | 0.46 | 0.522 |
| NCI-H1944 | 0.854 | 0.825 | 0.938 | 0.888 | 0.795 | 0.448 | 0.579 | 0.465 | 0.588 | 0.388 | 0.332 | 0.429 | 0.381 | 1.05 | 0.983 | 1.05 | 1.17 | 0.532 |
| HCC-366 | 0.884 | 0.921 | 0.992 | 0.914 | 0.946 | 0.307 | 0.381 | 0.302 | 0.386 | 0.353 | 0.421 | 0.371 | 0.353 | 1.08 | 1.04 | 0.989 | 0.843 | 0.243 |
